The text below walks through data of patent US7812039B2, “Drugs for chronic pains” (Nicox S.A., priority 2001, dated 2010).

Experiment [1] relates to Human cells of the umbilical vein. Description: NO generation from NO-donors with endothelial cells, chemiluminescence. The class given is cell-based. As to conditions: incubation of 100 μM, 5 minutes. Here is the method: (§1) The test relates to the nitric oxide generation from the NO-donors, for example nitroglycerin, niocorandil, nitroprussiate, etc., in the presence of endothelial cells (method a) or platelets (method b). • a) Endothelial Cells • Human cells of the umbilical vein, cultured on plates, having a 10^3 density cells/well were incubated for 5 minutes with scalar concentrations of NO-donor (1-100 μg/ml). The incubation medium (physiologic solution, for example Tyrode) was then analyzed to determine the capability to generate NO of the compound under test, by means of: • 1) nitric oxide detection by chemiluminescence; • 2) cGMP determination (cyclic GMP n° 2715 of the above mentioned Merck). • For the analysis by chemiluminescence, an amount equal to 100 μl was injected in the reaction chamber of a chemiluminescence analyzer containing glacial acetic acid and potassium iodide. The nitrites/nitrates present in the medium, under these conditions are converted into NO which is then detected after reaction with ozone, which produces light. In the equipments which measure the chemiluminescence, the luminescence produced is directly proportional to the generated NO levels and can be measured by a suitable photomultiplying unit of a chemiluminescence analyzer. The photomultiplier converts the incident light in electric voltage, which is quantitatively recorded. […]

The subject of experiment [2] is Washed human platelets. Description: NO generation from NO-donors with platelets, chemiluminescence. Format: cell-based. The following applies: incubation of 100 μM, 5 minutes. The protocol: as §1

As to `O=C(NCCO[N+](=O)[O-])c1cccnc1` [nicorandil], the entries for the “amount of NO generated” value in experiment [1] and in experiment [2] were “about 10 μM” and 35 µM, respectively.
